Values quoted from earlier work in publication PMC3160472 (Nature protocols, 2011).
Like-named read-outs stand apart in the source and are kept apart here.

Columns and labels:
[1] = biological target: IBC (IP3-binding core of IP3 receptor, residues 224-604 of IP3R1); conditions: read-out: KD, IBC, 3H-IP3; Ca2+-free CLM, 4 °C, equilibrium competition binding with 3H-IP3, mean ± S.E.M., n = 3
[2] = biological target: IBC (IP3-binding core of IP3 receptor, residues 224-604 of IP3R1); conditions: read-out: KD, IBC, FP, Ca2+-free CLM, 4 °C, mean ± S.E.M., n = 3
[3] = biological target: NT (N-terminal domain of IP3 receptor, residues 1-604 of IP3R1); conditions: for Kd: read-out: KD, NT, 3H-IP3, Ca2+-free CLM, 4 °C, equilibrium competition binding with 3H-IP3, mean ± S.E.M., n = 3
[4] = biological target: NT (N-terminal domain of IP3 receptor, residues 1-604 of IP3R1); conditions: read-out: KD, NT, FP, Ca2+-free CLM, 4 °C, mean ± S.E.M., n = 3
[5] = biological target: NT (N-terminal domain of IP3 receptor, residues 1-604 of IP3R1); conditions: read-out: KD, saturation radioligand binding; 'purified' NT, 3H-IP3, in TEM (pH 8.3)

Molecule | Kd [1] [nM] | Kd [2] [nM] | Kd [3] [nM] | Kd [4] [nM] | KD for the NT in TEM relative to Ca2+-free CLM ([3]; TEM (pH 8.3) versus Ca2+-free CLM (pH 7.0), printed as higher in TEM) | Kd [5] [nM]
Nc1ncnc2c1ncn2[C@@H]1O[C@H](CO)[C@@H](O[C@H]2O[C@H](CO)[C@@H](OP(=O)(O)O)[C@H](OP(=O)(O)O)[C@H]2O)[C@H]1OP(=O)(O)O [Adenophostin A] | 0.7 ± 0.1 | 0.9 ± 0.1 | 6.2 ± 1.6 | 8.6 ± 0.2 | – | –
O=P([O-])([O-])O[C@@H]1[C@H](O)[C@H](O)[C@@H](OP(=O)([O-])[O-])[C@H](OP(=O)([O-])[O-])[C@H]1O.[K+].[K+].[K+].[K+].[K+].[K+] [IP3, D-myo-inositol-1,4,5-trisphosphate, hexapotassium salt] | 8.7 ± 1.8 | 9.2 ± 0.8 | 65 ± 8 | 95 ± 7 | ~ 40 fold | 2.2 ± 0.5
D-2-O-(2-(3-(5-fluoresceinyl)thioureido)ethyl)-myo-inositol 1,4,5-trisphosphate [FITC-IP3] | 2 ± 0.2 | 3 ± 0.1 | 11.8 ± 0.2 | 12.5 ± 0.6 | – | –
